The source of these data is patent US11225460B2, “Pyrrolidineamide derivatives and uses thereof” (SUNSHINE LAKE PHARMA CO., LTD., priority 2019, dated 2022).

Data set [1] has as its target T1, Human recombinant monoamine oxidase B (Homo sapiens, UniProt P27338).
T1 construct: host or cells: Sf9 cells
T1 sequence (P27338 1-520): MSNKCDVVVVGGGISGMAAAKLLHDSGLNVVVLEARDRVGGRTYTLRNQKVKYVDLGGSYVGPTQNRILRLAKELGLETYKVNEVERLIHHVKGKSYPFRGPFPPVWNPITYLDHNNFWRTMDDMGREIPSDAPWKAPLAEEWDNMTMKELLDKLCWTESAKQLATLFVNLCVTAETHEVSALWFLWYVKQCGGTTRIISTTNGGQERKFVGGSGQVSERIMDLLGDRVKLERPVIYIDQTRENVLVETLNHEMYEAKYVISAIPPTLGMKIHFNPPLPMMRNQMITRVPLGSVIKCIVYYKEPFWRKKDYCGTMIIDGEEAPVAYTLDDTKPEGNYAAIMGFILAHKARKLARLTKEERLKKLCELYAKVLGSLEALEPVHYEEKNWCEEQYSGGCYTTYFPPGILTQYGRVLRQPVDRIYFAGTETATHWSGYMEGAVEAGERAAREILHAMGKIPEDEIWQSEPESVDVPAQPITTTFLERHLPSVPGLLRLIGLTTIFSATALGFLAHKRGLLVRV
Description: Inhibitory effect on the activity of monoamine oxidase B. In kind it is biochemical. Conditions: human recombinant MAO-B, substrate benzylamine hydrochloride. The method, then: Human recombinant monoamine oxidase B expressed in Sf9 cells was used in the test system. In the experiment, firstly, the recombinant monoamine oxidase B was dissolved in the pre-configured HEPES buffer (0.8% NaCl, 0.037% KCl, 0.0135% Na2HPO4.2H2O, 0.1% Glucan, 0.5% HEPES, pH=7.0) at a concentration of 0.3 μg/μL. To each well of a 384-well plate was added 10 μL of monoamine oxidase B solution, and the test compound with different concentrations (the final concentration of DMSO was 1%) (10 gradient concentrations were 10 mM, 1 mM, 100 μM, 10 μM, 1 μM, 100 nM, 10 nM, 1 nM, 0.1 nM, 0.01 nM) were added into the wells respectively. The standard reference compound was R-(−)-Deprenyl, the plate was incubated at room temperature for 15 min. Then, each well filled with 10 μL substrate solution (Benzylamine hydrochloride, 1 mM) was incubated at room temperature for 60 min. Then 20 μL of fluorescein detection reagent was added to each well, which was fully blended and incubated at room temperature for 20 minutes to produce stable fluorescence signal. The fluorescence signal was read by fluorescein labeling instrument, and the value was expressed by relative light intensity (RLU). The inhibitory rate on enzyme activity was calculated according to the experimental results, the calculated formula: Inh %=(Max−Signal)/(Max−Min)*100, wherein Max was the detected value at the maximum concentration of the sample, Min was the detected value at the minimum concentration of the sample, and Signal was the detected value at the current concentration of the sample.
The standard curve was obtained through the series concentration by experimental test to calculate the IC50.

Data set [2] is described as follows: Pharmacokinetic evaluation after intravenous or gavage administration in rats. It is filed as in vivo, SD rats. The method, then: The LC-MS/MS system comprises Agilent 1200 series vacuum degassing furnace, quaternary pumps, well-plate autosampler, thermostatted column compartment, the API4000Qtrap Triple Quadrupole Mass Spectrometer with an electrospray ionization (ESI) source. Quantitative analysis was carried out using MRM mode. The parameters for MRM transitions are in Table 2.
Analysis was carried out on waters xbridge C18 (2.1×50 mm, […] column, 0.5 μL of sample), the analytic conditions are mobile phases cosisting of water+2 mM ammonium formate+0.1% formic acid (Phase A) and methanol+2 mM ammonium formate+0.1% formic acid (Phase B). The flow rate was 0.4 mL/min. And the gradient of Mobile phase was in Table 3.
Each animal species was divided into two groups: one was administered intravenously and the other was administered intragastrically. The compounds disclosed herein were administered in form of a solution containing 5% DMSO+5% Kolliphor HS15+90% Saline. For the group of intravenous administration, the administration dose was 1 mg/kg, and vein blood samples (0.3 ml) were collected at the time points of 0.083, 0.25, 0.5, 1.0, 2.0, 4.0, 6.0, 8.0 and 24 h after drug administration, then plasma solutions were collected by centrifuging each blood sample at 3000 rpm or 4000 rpm for 10 minutes and kept at −20° C. or −70° C. For the group of intragastric administration, the administration dose was 5 mg/kg, and vein blood samples (0.3 mL) were collected at the time points of 0.25, 0.5, 1.0, 2.0, 4.0, 6.0, 8.0 and 24 h after drug administration, then plasma solutions were collected by centrifuging each blood sample at 3000 rpm or 4000 rpm for 10 minutes and kept at −20° C. or −70° C.
20 μL of plasma was blended with 120 μl, 50 ng/ml propranolol standard water solution, then the mixture was extracted with 1.0 mL methyl tert-butyl ether (MTBE), 0.7 mL of supernatant was dried by blow with nitrogen and then dissolved again with 220 μL methanol water (methanol/water (v/v)=1/1). LC-MS/MS method was used to detect the concentration of the target compounds, and […] was used to calculate the pharmacokinetic parameters.

[3] abbreviates: SD, rat, plasma, iv, i.v group, 1 mg/kg.
Where [4] appears, read: SD, rat, plasma, po, i.g group, 5 mg/kg.

pIC50: −log10 of the molar value.

In general, pIC50 refers to the negative decadic logarithm of the IC50, by convention in mol/L. As usually defined, the AUC(0-inf) is the area under the concentration-time curve extrapolated to infinity. Low values mean less exposure, high ones more exposure. In general, Cmax refers to the highest concentration seen after dosing. Usually MRT inf stands for the average time that molecules of a dose stay in the body. For orientation: Tmax means the time from dosing to the highest level. Broadly, the AUC(0-t) is the area under the concentration-time curve up to a stated or last time point. High values mean high exposure, low ones low exposure. The half-life is the time needed for the level to fall by half in the phase considered. High values mean slow loss, low ones fast loss. `NC(=O)[C@@H]1C[C@H](F)CN1Cc1ccc(OCc2cccc(F)c2)cc1` [Example 1, (2S,4S)-4-fluoro-1-(4-(3-fluorobenzyloxy)benzyl)pyrrolidine-2-formamide]: in data set [1], the pIC50 is 7.72. Besides, in data set [2] (setting [3]), the AUC(0-inf) amounted to 507 ng·h/mL, the Cmax was determined as 690 ng/mL, the MRT inf worked out at 41.6 min and the Tmax was determined as 4.98 min. In data set [2] (setting [4]), this compound had an AUC(0-inf) of 1400 ng·h/mL, an AUC(0-t) of 1400 ng·h/mL, a Cmax of 1000 ng/mL and an MRT inf of 64.8 min. In data set [2] (setting [4]), the Tmax turned out to be 20 min and the half-life is 33.9 min. In data set [2] (i.g group, 5 mg/kg), this compound came in with an F of 55.2%. Also, in data set [2] (i.v group, 1 mg/kg), the AUClast was determined as 505 ng·h/mL, the Cl turned out to be 32.9 mL/min/kg and the T1/2 is 40.2 min.

Regarding `NC(=O)[C@@H]1C[C@H](F)CN1Cc1ccc(OCc2cccc(F)c2)cc1F` [Example 3, (2S,4S)-4-fluoro-1-(2-fluoro-4-(3-fluorobenzyloxy)benzyl)pyrrolidine-2-formamide], in data set [1], the pIC50 is 7.52. Besides, in data set [2] (setting [3]), the AUC(0-inf) was found to be 582 ng·h/mL, the AUC(0-t) turned out to be 582 ng·h/mL, the Cmax worked out at 681 ng/mL and the MRT inf was 46.7 min. In data set [2] (setting [3]), the Tmax is 4.98 min, the clearance turned out to be 28.7 mL/min/kg and the half-life was 42.7 min. Also, in data set [2] (setting [4]), the AUC(0-inf) was 1550 ng·h/mL, the AUC(0-t) came out at 1520 ng·h/mL, the Cmax turned out to be 700 ng/mL and the MRT inf was 127 min. Further, in data set [2] (setting [4]), the Tmax came to 37.5 min and the half-life was 73.8 min. The F in data set [2] (i.g group, 5 mg/kg) was determined as 53.3%.
